Results taken from patent publication US4613587A, “Ophthalmic preparations” (Yeda Research and Development Co. Ltd., priority 1983, dated 1986).
Several values for one entry are separate records, joined by “and”; a condition that tells them apart may be missing. Equal values may be shown once. Read-outs that look alike come from different tables or passages of the source.

Experiments:
[1] = molecular target: elastase of P. aeruginosa (Pseudomonas aeruginosa, UniProt P14756); conditions: background; known inhibitors effective at rather large concentrations; cited from earlier work
elastase of P. aeruginosa, sequence (P14756 198-498): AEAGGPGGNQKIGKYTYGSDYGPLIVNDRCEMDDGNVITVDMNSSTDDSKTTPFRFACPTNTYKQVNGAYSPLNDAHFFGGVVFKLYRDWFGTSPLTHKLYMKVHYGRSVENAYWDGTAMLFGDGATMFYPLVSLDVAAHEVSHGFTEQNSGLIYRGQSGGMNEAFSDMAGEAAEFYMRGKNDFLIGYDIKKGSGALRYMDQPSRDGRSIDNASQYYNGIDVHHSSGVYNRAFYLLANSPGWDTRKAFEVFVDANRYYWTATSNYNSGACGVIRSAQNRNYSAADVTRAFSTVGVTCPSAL

[2] = molecular target: Pseudomonas elastase (Pseudomonas aeruginosa, UniProt P14756); assay: biochemical
Pseudomonas elastase, sequence (P14756 198-498): as above
Procedure: Measurements were performed at 25° C. The reaction solutions (2.5 ml) ocnsisted of 0.1-0.2 mM substrate in 0.1M NaCl-0.05M Tris. HCl-0.01M CaCl2, pH 7.5; all were demetallized. The hydrolysis of substrate was first order and rates were determined from plots of (At -A) versus t (At and A represent absorbance at time t and after completion of the reaction, respectively). Inhibition constants (Ki) were derived from plots of ko /ki versus inhibitor concentration (ko and ki are the observed rate constants in absence and presence of inhibitors, respectively).
The inhibition characteristics of […] for Pseudomonas elastase, using furylacryloyl-Gly-Leu-Ala as the substrate, was determined. […] The Ki value for HS-Ac-Phe-Leu was 0.2 μM.

[3] = molecular target: T1, Pseudomonas aeruginosa elastase (Pseudomonas aeruginosa, UniProt P14756); assay: Protection of the cornea: pure elastase injected into rabbit cornea together with inhibitor; type: in vivo; conditions: rabbit eye, about 1 μg elastase injected with 0.2 μmole (70 μg) inhibitor
T1 sequence (P14756 198-498): as above
Procedure: 1. When about 1 μg of the pure elastase is injected into the cornea of a rabbit eye, the cornea "dissolves", swells and perforates within about an hour and a half from the time of the injection of the elastase. When the same amount of enzyme is injected in the presence of 0.2μ mole (70 μg) of the inhibitor mercaptoacetyl-L-phenylalanyl-L leucine, the dissolution effect is postponed to about 9 hours from the injection of the enzyme. […] The perforation of the cornea is prevented.

[4] = molecular target: T1, Pseudomonas aeruginosa elastase; assay: Protection of the cornea: topical inhibitor drops before and after elastase injection into rabbit cornea; type: in vivo; conditions: 10 mM solution
From the text: 2. […] This series of experiments proves that the mercaptoacetyl dipeptide is an effective agent preventing damage to the eye caused by Pseudomonas aeruginosa elastase.

[5] = test system: Pseudomonas aeruginosa; assay: Experimental model of Pseudomonas keratitis in rabbit eyes, antibiotic plus inhibitor versus antibiotic alone; type: in vivo; conditions: 10 mM inhibitor drops combined with 0.3% gentamicin sulfate
Procedure: 3. The efficacy of combined treatment with antibiotics and the inhibitor HSAc-Phe-Leu was compared with that of the antibiotics alone using an experimental model of Pseudomonas keratitis in rabbit eyes. The inhibitor at a concentration of 10 mM was given, one drop at a time, every 15 min. for 1 hour after infection with the bacteria, and then hourly for additional 44 hours. The antibiotic (0.3% gentamicin sulfate) was applied every 2 hours, starting 16 hours after infection.

[6] = test system: Pseudomonas aeruginosa; assay: Rabbit eyes infected with P. aeruginosa, topical treatment (Expt. A and B), clinical scores and corneal melting; type: in vivo; conditions: for Development of extensive corneal melting (%) / Development of extensive corneal melting, No. of eyes with melting/No. of eyes in group: extensive: 30% of corneal area affected; for Development of corneal melting (%) / Development of corneal melting, No. of eyes with melting/No. of eyes in group: rabbit eyes; for Clinical Scores: individual rabbit eyes, scoring of Table 3, maximum 10
Procedure: Further experiments were carried out. The schedule of topical treatment is set out in Table 2. The criteria applied to the results are set out in Table 3. […]

O=C(O)CN(CCN(CC(=O)O)CC(=O)O)CC(=O)O [EDTA]
inhibition of the elastase [1]: inhibited

CC(C)C[C@H](NC(=O)CS)C(=O)N[C@H](Cc1ccccc1)C(=O)O [HS-Ac-Leu-D-Phe]
Ki ([2]; 25° C., pH 7.5, substrate furylacryloyl-Gly-Leu-Ala, read-out: Ki): 34 µM

CC(C)C[C@H](NC(=O)CS)C(=O)N[C@@H](Cc1ccccc1)C(=O)O [HS-Ac-Leu-Phe, 2-mercaptoacetyl-L-leucyl-L-phenylalanine]
Ki [2]: 1.5 µM

CC(C)C[C@H](NC(=O)[C@H](Cc1ccccc1)NC(=O)CS)C(=O)O [HS-Ac-Phe-Leu, mercaptoacetyl-L-phenylalanyl-L-leucine]
Ki [2]: 0.2 µM | perforation of the cornea [3]: prevented | damage caused, part of the cornea affected ([3]; after about 9 hours): ≤ 10% | time from injection of the enzyme to which the dissolution effect of the cornea is postponed ([3]; without inhibitor about an hour and a half): about 9 hours | dissolution of the cornea ([4]; topical drops before and after enzyme injection): no "dissolution" of the cornea takes place at all | appearance of the eye ([4]; topical drops, remains for many hours after cessation of treatment): entirely normal | severity of the damage caused to the eyes, versus antibiotic alone [5]: significantly lower

c1cnc2c(c1)ccc1cccnc12 [O-phenanthroline]
inhibition of the elastase [1]: inhibited

gentamicin sulfate
Development of extensive corneal melting (%) ([6]; 28 h after infection): 27% | Development of extensive corneal melting, No. of eyes with melting/No. of eyes in group ([6]; 28 h after infection): 4/15 | Development of corneal melting (%) ([6]; 28 h after infection): 73% | Development of corneal melting, No. of eyes with melting/No. of eyes in group ([6]; 28 h after infection): 11/15 | Clinical Scores ([6]; 28 hours after infection, Expt. A): 7 and 4 and 3 and 6 and 1 | Clinical Scores ([6]; 28 hours after infection, Expt. B): 3 and 2 and 1 and 6 | Development of extensive corneal melting (%) ([6]; 48 h after infection): 60% | Development of extensive corneal melting, No. of eyes with melting/No. of eyes in group ([6]; 48 h after infection): 9/15 | Development of corneal melting (%) ([6]; 48 h after infection): 93% | Development of corneal melting, No. of eyes with melting/No. of eyes in group ([6]; 48 h after infection): 14/15 | Clinical Scores ([6]; 48 hours after infection, Expt. A): 7 and 10 and 6 and 4 and 3 | Clinical Scores ([6]; 48 hours after infection, Expt. B): 6 and 7 and 5 and 4
